Data reported in PubChem BioAssay (NCI).
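In this assay, cells in 96-well plates receive the compound at five concentrations for 48 hours. Endpoints are linearly interpolated between the surrounding concentrations. TGI is the concentration that stops growth completely.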 Where a SMILES comes first, the peptide text is derived from it. The star is where a group is joined. Pentanoyl = CCCCC(=O)*; Boc = CC(C)(C)OC(=O)*

Tests used:
Assay in all cases: growth of human tumour cells (NCI), 48 h
[1] = system: A498 renal
[2] = system: ACHN renal
[3] = system: BT-549 breast
[4] = system: CCRF-CEM leukemia
[5] = system: HCT-116 colon
[6] = system: HL-60(TB) leukemia
[7] = system: HOP-92 NSCLC
[8] = system: HT29 colon
[9] = system: K-562 leukemia
[10] = system: KM12 colon
[11] = system: MCF7 breast
[12] = system: MOLT-4 leukemia
[13] = system: NCI-H460 lung
[14] = system: NCI/ADR-RES ovarian
[15] = system: OVCAR-8 ovarian
[16] = system: RXF 393 renal
[17] = system: SK-MEL-5 melanoma
[18] = system: SW-620 colon
[19] = system: EKVX NSCLC

Compound	TGI [1] [µM]	TGI [2] [µM]	TGI [3] [µM]	TGI [4] [µM]	TGI [5] [µM]	TGI [6] [µM]	TGI [7] [µM]	TGI [8] [µM]	TGI [9] [µM]	TGI [10] [µM]	TGI [11] [µM]	TGI [12] [µM]	TGI [13] [µM]	TGI [14] [µM]	TGI [15] [µM]	TGI [16] [µM]	TGI [17] [µM]	TGI [18] [µM]	TGI [19] [µM]
CCCCC(=O)Oc1ccc(CC(NC(=O)OC(C)(C)C)C(=O)NC(C)C(=O)NC(Cc2ccccc2)C(=O)NCC(N)=O)cc1 (stereo not drawn) (Boc-Y(Pentanoyl)AFG-NH2; configuration not given here)	> 100	> 100	55.7	> 100	47.1	61	99.4	40	> 100	47.8	41.8	54.2	> 100	> 100	62.5	> 100	> 100	> 100	
O=C(CCCN1CCC2(CC1)NC(=O)c1ccccc1O2)c1ccc(F)cc1		> 100	> 100	> 100	> 100	> 100	> 100	> 100	> 100	> 100	> 100	> 100	> 100	> 100	> 100	> 100	> 100	> 100	> 100
O=C1Nc2ccccc2S/C1=C\c1ccccc1C(F)(F)F		> 100	> 100	> 100	> 100	> 100	> 100	> 100		> 100	> 100	> 100	> 100	> 100	> 100	> 100	> 100	> 100	> 100
C=CCCCC1SC2=C(CC)CCCN2C1=O (stereo not drawn)	> 100	> 100	> 100		> 100	> 100	> 100	> 100	> 100	> 100	> 100	> 100		> 100	> 100	> 100	> 100	> 100	> 100
c1ccc(C2SCc3nc4cc5ccccc5cc4n32)cc1 (stereo not drawn)		> 100	> 100	> 100	> 100		> 100	> 100	> 100	> 100	> 100	> 100		> 100	> 100	> 100		> 100	> 100
O=C(O)c1ccccc1CC1Cc2ccc3c(c2C1=O)CCC3 (stereo not drawn)		> 100	> 100	> 100	> 100	> 100	> 100	> 100	> 100	> 100	> 100	> 100	> 100	> 100	> 100	> 100	> 100	> 100	> 100
Cn1cc(-c2cnc(-c3cn(C)c4ccccc34)cn2)c2ccccc21	> 41.4	> 94.6	> 84.7	3.58	> 100	8.66	> 100	36.6	> 52.5	14.8	> 27.1	> 100	> 100	40.7	44.5	24.7	25.3	> 38.6	> 100
COC(=O)Nc1nc2ccc(S(=O)(=O)n3nnc4ccccc43)cc2[nH]1	> 100	> 100	48.1	> 100	> 100	> 100	35.8	> 100	> 100	> 100	> 100	> 100	> 100	> 100	> 100	36.1	> 100	> 100	> 100
O=C(NNc1ccnc2cc(Cl)ccc12)/C(=C\c1ccccc1Cl)NC(=O)c1ccccc1		> 100	87.8	> 100	> 100	67.8	> 100	> 100	> 100	51.6	46.1		> 100	73.7	43.5	> 100	81.2	> 100	> 100
COc1cc(=O)n2c3ccccc3n(C)c2c1C#N	> 100	> 100	> 100	> 100	> 100	> 100	> 100	> 100	> 100	> 100	> 100	> 100	> 100	> 100	> 100	> 100	> 100	> 100	> 100
O=C(O)c1cc2cc(c1)N=Cc1ccccc1OCc1cccc(n1)COc1ccccc1C=N2	> 25	> 25	> 25	> 25	> 25	> 25	> 25	> 25	> 25	> 25	> 25	> 25	> 25	15.4	> 25	> 25		> 25	> 25
N/C(=N\N=C\c1c[nH]c2cc(C(F)(F)F)ccc2c1=O)NO	> 10	> 10	> 10	> 10	> 10	> 10	> 10	> 10	> 10	> 10	> 10	> 10	> 10	> 10	> 10	> 10	> 10	> 10	> 10
O=c1ssc(Cl)c1Nc1c(Cl)ssc1=O	31.7	> 54.3	33.1	> 23.5	33.9	35.1	41.6	47.5	15.3	32.3	> 63	7.29	34.6	71.4	51.3	28.3	32	> 54.4	41.4
Cc1ccc2nc(-c3ccc(-n4c(C)nc(=O)c(-c5ccc(F)cc5)c4C)cc3)sc2c1	32.9	28.4	29.9	32.7	29.4	34.2	36.9	30.1	45.4	38.4	34.7	27.7		35	42.9	23.2	24.5	57.2	30
COc1cc(C=C2N=C(c3ccccc3)N(n3c(-c4ccccc4)nc4ccccc4c3=O)C2=O)cc(OC)c1OC		82.2	32.5	> 100	48.3	> 100	33.7	78.1	> 100	46.3	60.7	> 100	47.2	> 100	51.4	39.2	56.6	> 100	83.5
Nc1c(-c2nc3ccccc3o2)sc(=S)n1-c1ccc(Cl)cc1	99.7	24.1	76	> 100	29.3	> 100	63.3	> 100	> 100	> 100	> 100	> 100	> 100	74.1	30.2	66.8	56.9		> 100
Cc1ccc(S(=O)(=O)/N=C(\N)N(C)N=O)cc1	> 100		> 100	> 100	> 100	> 100	> 100	> 100	> 100	> 100	> 100	> 100	> 100	> 100	> 100	> 100		> 100	> 100
N#Cc1nc(COCc2ccccc2)oc1N		> 100	> 100	> 100	> 100		> 100	> 100	> 100	> 100	> 100	> 100		> 100	> 100	> 100		> 100	> 100
CC(=O)OC(C)c1cc2c(s1)C(=O)c1scc(C(C)OC(C)=O)c1C2=O (stereo not drawn)	1.26	0.628	0.426		0.838	> 100	4.58	3.53	> 100	0.359	0.605		0.344	0.802	0.546	1.31	0.208		2.2
Cc1nn(C(=O)c2ccc(Cl)cc2)c2c1C(c1cccc([N+](=O)[O-])c1)SC(N)=N2 (stereo not drawn)		> 10	> 10	> 10	> 10	> 10	> 10	> 10	> 10	> 10	> 10	> 10	> 10	> 10	> 10	> 10	> 10	> 10	> 10
O=C(CC(C(=O)c1ccco1)c1cccs1)c1cccs1 (stereo not drawn)	> 100	> 100	> 100		> 100	60.3	> 100	> 100		> 100	> 100		> 100	> 100	> 100	> 100	> 100	> 100	97.8
O=c1oc2nc(-c3ccccc3)cc(C(F)(F)F)c2n1Cc1ccccc1	9.48	> 100	> 100	> 26.1	> 100		> 100	> 100	> 100	> 100	> 100	> 100	> 100	> 60.4	> 100	> 30.3	> 100	> 100	> 100
CCn1c(-c2ccc(F)cc2)nc2c1C(=O)c1ccccc1C2=O		> 100	> 100	> 100	> 100	> 100	> 100	> 100	> 100	> 100	> 100	> 100	> 100	> 100	> 100	> 100	> 100	> 100	> 100
O=c1[nH]c(=O)n(C2OC(CO)C(O)C2O)c2ccsc12 (stereo not drawn)	> 100	> 100	> 100	> 100	> 100	> 100	> 100	> 100	> 100	> 100	> 100	> 100	> 100	> 100		> 100	> 100	> 100	> 100
Oc1ccc2oc3c(O)c4ccccc4cc3c2c1	9.33	21	15.3	8.47	4.16	13.5	41.6	48.6	1.3	10.5	18.8	11.9	53.9	9.74	16.5	16.9	7.5	14.1	
CCOC(=O)C(NCc1ccc2c(c1)OCO2)(NC(=O)c1ccccc1)C(F)(F)F (stereo not drawn)		> 100	> 100	67.8	> 100	82	> 100	> 100	> 100	> 100	> 100	50.8		> 100	> 100	> 100	> 100	> 100	> 100
